Test [1] addresses Epidermal Growth Factor Receptor (EGFR) (Homo sapiens (Human), UniProt P00533). The test is described as follows: EGFR kinase assay (TR-FRET). The format is biochemical. Particulars: values given in μM; read-out: EGFR kinase inhibition IC50. The gist of the method:
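EGFR purified from A431 cells was preincubated with compound 15 min at 22° C in pH 7.0 Hepes buffer with MgCl2, MnCl2 and vanadate before reaction with a biotinylated peptide. After EDTA stop, phosphopeptide was detected by TR-FRET (anti-phosphotyrosine Tb-cryptate, streptavidin-XL665) as the 665/620 nm emission ratio.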

For test [2], the target named is human SOS1 (nucleotide exchange of K-Ras^G12C) (Homo sapiens, UniProt Q07889). In words: Biochemical assay 2: K-Ras^G12C activation assay by hSOS1 at high GTP concentration (HTRF). As to conditions: high GTP; read-out: Assay 2 (KRAS-Activation by SOS high GTP) activity expressed as IC50. For orientation: TR-FRET usually uses a lanthanide donor and a delayed reading to cut background.

Sequence of Epidermal Growth Factor Receptor (EGFR) (P00533 25-1210): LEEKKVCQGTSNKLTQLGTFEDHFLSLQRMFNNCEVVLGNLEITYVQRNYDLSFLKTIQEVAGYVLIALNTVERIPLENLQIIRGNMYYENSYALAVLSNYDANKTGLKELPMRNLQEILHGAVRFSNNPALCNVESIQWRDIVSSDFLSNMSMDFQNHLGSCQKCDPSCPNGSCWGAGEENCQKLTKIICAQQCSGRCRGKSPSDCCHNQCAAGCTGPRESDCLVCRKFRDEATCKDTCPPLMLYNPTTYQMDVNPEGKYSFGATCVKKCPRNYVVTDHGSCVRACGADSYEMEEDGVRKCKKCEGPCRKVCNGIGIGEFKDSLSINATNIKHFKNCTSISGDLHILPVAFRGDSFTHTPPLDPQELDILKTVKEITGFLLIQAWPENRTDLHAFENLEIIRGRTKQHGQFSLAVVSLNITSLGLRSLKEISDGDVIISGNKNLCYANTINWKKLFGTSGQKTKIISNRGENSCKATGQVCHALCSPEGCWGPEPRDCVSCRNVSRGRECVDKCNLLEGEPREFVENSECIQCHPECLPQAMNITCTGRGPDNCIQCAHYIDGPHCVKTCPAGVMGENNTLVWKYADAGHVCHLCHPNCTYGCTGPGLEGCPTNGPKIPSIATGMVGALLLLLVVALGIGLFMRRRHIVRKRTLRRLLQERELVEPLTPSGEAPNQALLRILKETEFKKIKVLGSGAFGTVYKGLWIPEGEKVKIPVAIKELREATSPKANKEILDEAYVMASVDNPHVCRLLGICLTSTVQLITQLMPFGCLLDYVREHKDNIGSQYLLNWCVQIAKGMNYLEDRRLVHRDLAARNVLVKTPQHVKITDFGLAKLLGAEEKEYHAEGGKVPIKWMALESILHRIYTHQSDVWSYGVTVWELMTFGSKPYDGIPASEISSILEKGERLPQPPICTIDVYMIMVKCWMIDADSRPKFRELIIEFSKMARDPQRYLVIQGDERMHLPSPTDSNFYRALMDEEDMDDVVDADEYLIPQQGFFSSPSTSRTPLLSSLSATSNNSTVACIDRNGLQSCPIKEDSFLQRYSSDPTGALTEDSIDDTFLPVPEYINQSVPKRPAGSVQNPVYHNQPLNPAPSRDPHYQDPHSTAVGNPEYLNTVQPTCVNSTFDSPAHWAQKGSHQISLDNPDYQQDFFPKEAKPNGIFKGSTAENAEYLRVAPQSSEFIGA

One may read the IC50 as the midpoint of a concentration-inhibition curve. Consider `COc1cc2nc(C)nc(NC(C)c3ccc(-c4ccccc4CN4CC5(CNC(=O)N5)C4)s3)c2cc1OC` (stereo not shown) [Example 313, 2-[2-(5-{1-[(6,7-dimethoxy-2-methylquinazolin-4-yl)amino]ethyl}thiophen-2-yl)benzyl]-2,5,7-triazaspiro[3.4]octan-6-one], for which the values for the half-inhibitory concentration (IC50) in test [1] and in test [2] were over 20 µM and 162 nM, respectively.

`COc1cc2nc(C)nc(NC(C)c3ccc(-c4ccc(F)cc4CNC(=O)[C@@H]4CCCN4)s3)c2cc1OC` (stereo partly drawn) [Example 314, N-[2-(5-{1-[(6,7-dimethoxy-2-methylquinazolin-4-yl)amino]ethyl}thiophen-2-yl)-5-fluorobenzyl]-L-prolinamide]: the figures for the IC50 in test [1] and in test [2] were over 20 µM and 87.3 nM, respectively.

As to `COc1cc2nc(C)nc(NC(C)c3ccc(-c4ccccc4CNCC(F)F)s3)c2cc1OC` (stereo not shown) [Example 315, N-{1-[5-(2-{[(2,2-difluoroethyl)amino]methyl}phenyl)thiophen-2-yl]ethyl}-6,7-dimethoxy-2-methylquinazolin-4-amine], the IC50 in test [1] is over 20 µM; in test [2], 967 nM.

Regarding `COc1cc2nc(C)nc(NC(C)c3ccc(-c4ccccc4CN4CCC4)s3)c2cc1OC` (stereo not shown) [Example 317, N-[1-{5-[2-(azetidin-1-ylmethyl)phenyl]thiophen-2-yl}ethyl]-6,7-dimethoxy-2-methylquinazolin-4-amine], the IC50 in test [1] was over 20 µM; in test [2], 62.7 nM.

With `COc1cc2nc(C)nc(NC(C)c3ccc(-c4ccccc4CN4CC[C@H]4CO)s3)c2cc1OC` (stereo partly drawn) [Example 318, {1-[(2S)-(5-{1-[(6,7-dimethoxy-2-methylquinazolin-4-yl)amino]ethyl}thiophen-2-yl)benzyl]azetidin-2-yl}methanol], the IC50 in test [1] was over 20 µM; in test [2] it was 167 nM.

Regarding `COc1cc2nc(C)nc(NC(C)c3ccc(-c4ccccc4CN4CC(N(C)C)C4)s3)c2cc1OC` (stereo not shown) [Example 319, N-{1-[5-(2-{[3-(dimethylamino)azetidin-1-yl]methyl}phenyl)thiophen-2-yl]ethyl}-6,7-dimethoxy-2-methylquinazolin-4-amine], the IC50 in test [1] is over 20 µM; in test [2] it was 119 nM.

For the compound `COc1cc2nc(C)nc(NC(C)c3ccc(-c4ccccc4CN4CC(F)(F)C4)s3)c2cc1OC` (stereo not shown) [Example 320, N-[1-(5-{2-[(3,3-difluoroazetidin-1-yl)methyl]phenyl}thiophen-2-yl)ethyl]-6,7-dimethoxy-2-methylquinazolin-4-amine], the IC50 in test [1] was over 20 µM; in test [2], 1300 nM.

Turning to `COc1cc2nc(C)nc(NC(C)c3ccc(-c4ccccc4CN(C)CC(F)(F)F)s3)c2cc1OC` (stereo not shown) [Example 321, 6,7-di methoxy-2-methyl-N-{1-[5-(2-{[methyl(2,2,2-trifluoroethyl)amino]methyl}phenyl)thiophen-2-yl]ethyl}quinazolin-4-amine], the IC50 in test [1] was over 20 µM; in test [2], 6240 nM.

On to `COc1cc2nc(C)nc(NC(C)c3ccc(-c4ccccc4CN4CC(F)C4)s3)c2cc1OC` (stereo not shown) [Example 322, N-[1-(5-{2-[(3-fluoroazetidin-1-yl)methyl]phenyl}thiophen-2-yl)ethyl]-6,7-dimethoxy-2-methylquinazolin-4-amine], for which the half-maximal inhibitory concentration (IC50) in test [1] was over 20 µM; in test [2] it was 247 nM.

As for `COc1cc2nc(C)nc(NC(C)c3ccc(-c4ccc(Cl)cc4CN(C)C)s3)c2cc1OC` (stereo not shown) [Example 323, N-[1-(5-{4-chloro-2-[(dimethylamino)methyl]phenyl}thiophen-2-yl)ethyl]-6,7-dimethoxy-2-methylquinazolin-4-amine], the IC50 in test [1] was over 20 µM; in test [2] it was 72.9 nM.

For `COc1cc2nc(C)nc(NC(C)c3ccc(-c4ccccc4C(C)=O)s3)c2cc1OC` (stereo not shown) [Example 324, 1-[2-(5-{1-[(6,7-dimethoxy-2-methylquinazolin-4-yl)amino]ethyl}thiophen-2-yl)phenyl]ethanone], the IC50 in test [1] is over 20 µM; in test [2], 3380 nM.

Values taken from patent US20240083857A1, “2-Methyl-Quinazolines” (Bayer Pharma Aktiengesellschaft, priority 2017, published 2024).
